From paper PMC7305236, “The atypical chemokine receptor ACKR3/CXCR7 is a broad-spectrum scavenger for opioid peptides” (Nature Communications, 2020)
Read-outs that look alike come from different tables or passages of the source. Starred links: 1 amine or outer side, 2 acyl side, 3 side chain; linkers in the order of their positions; H or OH if unused. Non-standard residues stand in square brackets, D forms with d. Residues, ends and D or L forms follow the SMILES beside them. X1 = N[C@@H](Cc1ccccc1)CN(CC(=O)[*:2])[*:1]

How the values were obtained:
Design in all cases: dose or concentration left out as unconfirmed
[1] = biological target: T1, CCR2 (Homo sapiens, UniProt P41597); test: Figure S2a opioid peptide screen on chemokine receptors; format: cell-based
T1 construct: expressed in transfected cells
T1 sequence (P41597 1-360 isoform P41597-2): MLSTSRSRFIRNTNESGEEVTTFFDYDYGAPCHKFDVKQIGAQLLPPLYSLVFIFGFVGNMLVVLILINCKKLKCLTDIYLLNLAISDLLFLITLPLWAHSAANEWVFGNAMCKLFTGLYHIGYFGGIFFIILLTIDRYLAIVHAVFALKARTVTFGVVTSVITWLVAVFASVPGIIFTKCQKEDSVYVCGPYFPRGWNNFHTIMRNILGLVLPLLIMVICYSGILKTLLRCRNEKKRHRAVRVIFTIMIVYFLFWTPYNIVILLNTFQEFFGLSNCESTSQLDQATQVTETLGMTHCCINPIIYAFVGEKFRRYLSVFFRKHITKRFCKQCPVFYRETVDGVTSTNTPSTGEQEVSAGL

[2] = biological target: T2, CXCR4 (Homo sapiens, UniProt P61073); test: cell-based
T2 construct: expressed in transfected cells; host or cells: U87, transient cotransfection of pNBe vectors

[3] = biological target: T3, CXCR5 (Homo sapiens, UniProt P32302); test: Figure S2a opioid peptide screen on chemokine receptors; format: cell-based
T3 construct: expressed in transfected cells
T3 sequence (P32302 1-372): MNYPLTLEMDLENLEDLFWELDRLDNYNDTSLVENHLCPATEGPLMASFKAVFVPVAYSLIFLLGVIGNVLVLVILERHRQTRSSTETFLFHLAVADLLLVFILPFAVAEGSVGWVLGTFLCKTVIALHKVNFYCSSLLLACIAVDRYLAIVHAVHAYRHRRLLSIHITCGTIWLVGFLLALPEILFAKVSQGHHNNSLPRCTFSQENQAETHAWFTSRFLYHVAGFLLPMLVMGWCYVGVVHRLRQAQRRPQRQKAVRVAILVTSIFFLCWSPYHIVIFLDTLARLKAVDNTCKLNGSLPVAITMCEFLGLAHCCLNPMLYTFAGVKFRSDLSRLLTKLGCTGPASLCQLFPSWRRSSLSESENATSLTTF

[4] = biological target: T4, CXCR6 (Homo sapiens, UniProt O00574); test: as above; format: cell-based
T4 construct: expressed in transfected cells

[5] = biological target: T5, XCR1 (Homo sapiens, UniProt P46094); test: as above; format: cell-based
T5 construct: expressed in transfected cells
T5 sequence (P46094 1-333): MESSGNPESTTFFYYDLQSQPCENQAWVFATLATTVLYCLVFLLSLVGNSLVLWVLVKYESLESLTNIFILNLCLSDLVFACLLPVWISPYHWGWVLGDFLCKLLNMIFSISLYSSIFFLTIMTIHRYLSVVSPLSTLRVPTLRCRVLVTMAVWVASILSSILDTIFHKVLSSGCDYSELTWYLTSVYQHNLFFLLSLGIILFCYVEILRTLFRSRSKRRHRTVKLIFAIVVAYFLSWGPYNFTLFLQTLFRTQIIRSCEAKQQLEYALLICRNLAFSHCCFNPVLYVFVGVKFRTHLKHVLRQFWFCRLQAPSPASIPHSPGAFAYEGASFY

[6] = biological target: ACKR3 (Homo sapiens, UniProt P25106); test: cell-based; settings: read-out: ACKR3 activity, ctrl+ = 100, Figure S2a
[7] = biological target: T6, CCR3 (Homo sapiens, UniProt P51677); test: Figure S2a opioid peptide screen on chemokine receptors; settings: read-out: CCR3 activity, ctrl+ = 100, Figure S2a
T6 sequence (P51677 1-355): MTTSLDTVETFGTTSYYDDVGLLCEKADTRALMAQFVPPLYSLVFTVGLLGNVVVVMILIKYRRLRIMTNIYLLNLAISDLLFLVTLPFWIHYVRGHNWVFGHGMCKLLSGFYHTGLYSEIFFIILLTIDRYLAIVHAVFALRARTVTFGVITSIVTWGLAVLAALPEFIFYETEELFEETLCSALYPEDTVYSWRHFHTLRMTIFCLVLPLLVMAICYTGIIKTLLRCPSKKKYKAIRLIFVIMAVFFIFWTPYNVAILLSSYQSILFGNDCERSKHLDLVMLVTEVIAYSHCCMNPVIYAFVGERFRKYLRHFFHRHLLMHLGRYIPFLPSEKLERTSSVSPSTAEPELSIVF

[8] = biological target: T7, ACKR4 (Homo sapiens, UniProt Q9NPB9); test: as above; settings: read-out: ACKR4 activity, ctrl+ = 100, Figure S2a
T7 sequence (Q9NPB9 1-350): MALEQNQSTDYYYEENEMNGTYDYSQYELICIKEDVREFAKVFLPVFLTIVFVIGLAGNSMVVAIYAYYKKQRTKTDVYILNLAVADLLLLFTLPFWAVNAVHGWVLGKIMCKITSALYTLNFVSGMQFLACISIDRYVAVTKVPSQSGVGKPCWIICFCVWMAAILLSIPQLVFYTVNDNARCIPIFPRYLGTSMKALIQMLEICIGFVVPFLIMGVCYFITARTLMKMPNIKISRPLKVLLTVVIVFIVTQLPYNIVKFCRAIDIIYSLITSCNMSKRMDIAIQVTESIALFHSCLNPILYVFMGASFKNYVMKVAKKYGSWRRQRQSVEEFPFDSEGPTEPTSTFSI

[9] = replicate 1, read-out: CCR2 activity, ctrl+ = 100
[10] = replicate 2, read-out: CCR2 activity, ctrl+ = 100
[11] = replicate 3, read-out: CCR2 activity, ctrl+ = 100
[12] = Figure S2a, replicate 1, read-out: CXCR4 activity, ctrl+ = 100
[13] = Figure S2a, replicate 2, read-out: CXCR4 activity, ctrl+ = 100
[14] = Figure S2a, replicate 3, read-out: CXCR4 activity, ctrl+ = 100
[15] = replicate 1, read-out: CXCR5 activity, ctrl+ = 100
[16] = replicate 2, read-out: CXCR5 activity, ctrl+ = 100
[17] = replicate 3, read-out: CXCR5 activity, ctrl+ = 100
[18] = replicate 1, read-out: CXCR6 activity, ctrl+ = 100
[19] = replicate 2, read-out: CXCR6 activity, ctrl+ = 100
[20] = replicate 3, read-out: CXCR6 activity, ctrl+ = 100
[21] = replicate 1, read-out: XCR1 activity, ctrl+ = 100
[22] = replicate 2, read-out: XCR1 activity, ctrl+ = 100
[23] = replicate 3, read-out: XCR1 activity, ctrl+ = 100

Sequence of ACKR3 (P25106 whole entry): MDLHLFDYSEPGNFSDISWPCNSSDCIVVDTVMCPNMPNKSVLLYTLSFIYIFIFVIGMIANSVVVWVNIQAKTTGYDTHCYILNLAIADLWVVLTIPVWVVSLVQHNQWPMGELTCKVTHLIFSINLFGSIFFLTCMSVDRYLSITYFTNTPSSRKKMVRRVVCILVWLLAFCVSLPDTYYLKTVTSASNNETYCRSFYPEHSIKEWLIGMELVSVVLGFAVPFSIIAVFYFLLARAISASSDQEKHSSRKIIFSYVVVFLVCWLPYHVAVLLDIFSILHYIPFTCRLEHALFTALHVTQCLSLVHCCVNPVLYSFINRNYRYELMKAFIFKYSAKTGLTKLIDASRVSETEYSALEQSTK
T2 sequence (P61073 whole entry): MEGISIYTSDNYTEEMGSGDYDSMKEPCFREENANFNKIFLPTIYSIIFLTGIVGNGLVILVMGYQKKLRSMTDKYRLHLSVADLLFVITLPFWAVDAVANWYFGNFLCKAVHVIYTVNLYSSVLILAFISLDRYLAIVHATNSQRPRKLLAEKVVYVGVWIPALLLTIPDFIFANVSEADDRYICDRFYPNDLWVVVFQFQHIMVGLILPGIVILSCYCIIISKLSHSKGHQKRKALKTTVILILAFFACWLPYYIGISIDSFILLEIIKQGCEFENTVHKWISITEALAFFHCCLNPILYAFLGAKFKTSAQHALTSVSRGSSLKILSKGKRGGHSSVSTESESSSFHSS
T4 sequence (O00574 whole entry): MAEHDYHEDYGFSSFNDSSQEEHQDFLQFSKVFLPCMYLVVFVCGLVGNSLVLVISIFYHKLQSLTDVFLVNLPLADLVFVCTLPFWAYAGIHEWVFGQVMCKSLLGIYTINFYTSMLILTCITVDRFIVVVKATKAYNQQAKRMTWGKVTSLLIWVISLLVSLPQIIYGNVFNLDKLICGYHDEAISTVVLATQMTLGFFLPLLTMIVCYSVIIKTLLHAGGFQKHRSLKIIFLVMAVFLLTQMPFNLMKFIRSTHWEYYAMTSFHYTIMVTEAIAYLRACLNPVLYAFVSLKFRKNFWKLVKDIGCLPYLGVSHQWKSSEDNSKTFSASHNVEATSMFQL

Row | SMILES | activation [1, 9] [%] | activation [1, 10] [%] | activation [1, 11] [%] | activation [2, 12] [%] | activation [2, 13] [%] | activation [3, 15] [%] | activation [3, 16] [%] | activation [3, 17] [%] | activation [4, 18] [%] | activation [4, 19] [%] | activation [4, 20] [%] | activation [5, 21] [%] | activation [5, 22] [%] | activation [5, 23] [%] | activation ([6]; replicate 1) [%] | activation ([6]; replicate 2) [%] | activation ([7]; replicate 1) [%] | activation ([7]; replicate 2) [%] | activation ([8]; replicate 1) [%] | activation ([8]; replicate 2) [%] | further results
1 | CSCC[C@H](NC(=O)[C@H](Cc1ccccc1)NC(=O)CNC(=O)CNC(=O)[C@@H](N)Cc1ccc(O)cc1)C(=O)N[C@@H](CCCNC(=N)N)C(=O)N[C@@H](CCCNC(=N)N)C(=O)N[C@H](C(N)=O)C(C)C [Adrenorphin] | -0.901 | -1.07 | -1.1 | -0.233 | 14 | -2.55 | -4.15 | 2.83 | 0.866 | -0.941 | -0.716 | -2.07 | 2.59 | 12.1 | 111 | 55.3 | 10.9 | -10.8 | -1.94 | -1.88 | activation [2, 14]: 3.91%; activation ([6]; replicate 3): 84.5%; activation ([7]; replicate 3): 23.6%; activation ([8]; replicate 3): -0.895%
2 | C[C@H](NC(=O)CNC(=O)[C@@H](NC(=O)[C@H](Cc1ccccc1)NC(=O)CNC(=O)CNC[C@@H](N)Cc1ccccc1)[C@@H](C)O)C(=O)N[C@@H](CCCNC(=N)N)C(=O)N[C@@H](CCCCN)C(=O)N[C@@H](CO)C(=O)N[C@@H](C)C(=O)N[C@@H](CCCNC(=N)N)C(=O)N[C@@H](CCCCN)C(N)=O [FG Nociceptin 1-13] (H-[X1]GFTGARKSARK-NH2) | -0.148 | -0.651 | 0.99 | 1.4 | -4.91 | -5.41 | -2.11 | -0.496 | -0.041 | 0.0677 | 0.612 | 0.7 | 1.1 | 16.8 | 61.5 | 58.4 | 13 | 6.22 |  | -0.784 | activation [2, 14]: 27.5%; activation ([6]; replicate 3): 66%; activation ([7]; replicate 3): 14.1%; activation ([8]; replicate 3): 0.45%
3 | CC(C)C[C@H](NC(=O)[C@H](CCCCN)NC(=O)[C@H](CCCN=C(N)N)NC(=O)[C@H](C)NC(=O)[C@H](CO)NC(=O)[C@H](CCCCN)NC(=O)[C@H](CCCN=C(N)N)NC(=O)[C@H](C)NC(=O)CNC(=O)[C@@H](NC(=O)[C@H](Cc1ccccc1)NC(=O)CNC(=O)CNC(=O)[C@@H](N)Cc1ccccc1)[C@@H](C)O)C(=O)N[C@@H](C)C(=O)N[C@@H](CC(N)=O)C(=O)N[C@@H](CCC(N)=O)C(=O)O [Nociceptin] | -0.0919 | -3.09 |  | 3.24 | -19.8 | -2.94 | -7.28 |  | -0.607 | -0.718 |  | 1.08 | -2.39 |  |  | 1.08 | 8.85 | -14.3 | -1 | -5.23 | 
4 | CSCC[C@H](NC(=O)[C@H](Cc1ccccc1)NC(=O)CNC(=O)CNC(=O)[C@@H](N)Cc1ccc(O)cc1)C(=O)N[C@@H](CCCNC(=N)N)C(=O)N[C@@H](CCCNC(=N)N)C(=O)N[C@H](C(=O)NCC(=O)N[C@@H](CCCNC(=N)N)C(=O)N1CCC[C@H]1C(=O)N[C@@H](CCC(=O)O)C(=O)N[C@@H](Cc1c[nH]c2ccccc12)C(=O)N[C@@H](Cc1c[nH]c2ccccc12)C(=O)N[C@@H](CCSC)C(=O)N[C@@H](CC(=O)O)C(=O)N[C@@H](Cc1ccc(O)cc1)C(=O)N[C@@H](CCC(N)=O)C(=O)N[C@@H](CCCCN)C(=O)N[C@@H](CCCNC(=N)N)C(=O)N[C@@H](Cc1ccc(O)cc1)C(=O)NCC(=O)O)C(C)C [BAM22] | -0.243 | -1.08 | 1.22 |  |  | -1.51 | -4.48 | -1.8 | -0.237 | -0.939 | -1.21 | -2.25 | -4.24 | 8.51 | 104 | 61.3 | 5.68 | -4.83 | -4.56 | -1.96 | activation ([2]; read-out: CXCR4 activity, ctrl+ = 100, Figure S2a, replicate 1): 22.9%; activation ([2]; read-out: CXCR4 activity, ctrl+ = 100, Figure S2a, replicate 2): 27.7%; activation ([2]; read-out: CXCR4 activity, ctrl+ = 100, Figure S2a, replicate 3): -6.34%; activation ([6]; replicate 3): 104%; activation ([7]; replicate 3): 17.9%; activation ([8]; replicate 3): 5.51%
5 | CC[C@H](C)[C@H](NC(=O)[C@H](CCCNC(=N)N)NC(=O)[C@H](CCCNC(=N)N)NC(=O)[C@H](CC(C)C)NC(=O)[C@H](Cc1ccccc1)NC(=O)CNC(=O)CNC(=O)[C@@H](N)Cc1ccc(O)cc1)C(=O)N[C@@H](CCCNC(=N)N)C(=O)N1CCC[C@H]1C(=O)N[C@@H](CCCCN)C(=O)N[C@@H](CC(C)C)C(=O)N[C@@H](CCCCN)C(=O)O [Dynorphin 1-13] | -0.833 | -2.52 |  | 13.2 | -40.8 | -0.575 | -5.55 |  | 0.0731 | -1.13 |  | -1.76 | -0.309 |  | 136 | 52.9 | 5.05 | -11.6 | -2 | -4.85 | 
